Earlier results, collected in patent publication US20210338702A1, “A teniposide injection with high dilution stability and preparation method thereof” (JIANGSU LINGHANG BIOLOGICAL TECHNOLOGY CO., LTD., priority 2018, published 2021).

Columns and labels:
[1] = compared with the same type of drug etoposide

In the case of COc1cc([C@@H]2c3cc4c(cc3[C@@H](O[C@@H]3O[C@@H]5CO[C@@H](c6cccs6)O[C@H]5[C@H](O)[C@H]3O)[C@H]3COC(=O)[C@H]23)OCO4)cc(OC)c1O [Teniposide], the “Biological activity relative to etoposide” value [1] is given as 5-10 times and the Solubility in water is given as “almost insoluble in water”.
